Columns and labels:
Type in all cases: cell-based, human
[1] = system: HL60 cells; test: Cell differentiation induction test, NBT reduction staining (differentiation into neutrophils); settings: for differentiation ratio (ratio of NBT-stained cells): after 10 days of culture
Procedure: (§1) To each well of a 6-well plate, 1 mL of HL60 cells were plated at a concentration of 5×10^4 cells/mL, and a test substance at five serial concentrations (a 10-fold dilution series ranging from 10%) was added to the well at the same time as the plating. The cells in the plate were cultured for 5 days or 10 days under 5% […] at 37° C. The cell suspension in each well was recovered by centrifugation, and the number of cells, the NBT reducing capacity, and the esterase activity of the recovered cells were measured. In addition, changes in the karyotype of each cell was observed by Carrazzi's hematoxylin staining. The ratio of stained cells in each sample was measured to evaluate the differentiation induction capacity. The test was carried out in 5 replicates (n=5). A sample without addition of the test substance, and 0.1% ethyl alcohol (solvent control for the positive control) were used as negative controls, and retinoic acid (dissolved in ethyl alcohol; final concentration, 1 μM) and active vitamin D3 (dissolved in ethyl alcohol; final concentration, 10 nM) were used as positive controls. Details of each staining method are described below.
The concentration of the recovered cells was adjusted to 1×10^6 cells/mL with RPMI 1640 medium (SIGMA, R8758, serum-free), and an equal volume of NBT solution (PBS supplemented with 0.2% NBT and 20% FBS, which was used after filtration) was added thereto. TPA was added to the resulting mixture to a final concentration of 6 μM, and the mixture was then stirred. Thereafter, the mixture was left to stand at 37° C. for 30 minutes, and centrifuged at 1000 rpm for 5 minutes, followed by discarding the supernatant. Subsequently, the cells were resuspended in PBS, and applied onto a slide glass, followed by counting cells stained blue under the microscope.

[2] = system: HL60 cells; test: Cytotoxicity test (mitochondrial activity level, counting of viable cells with WST-8); settings: 3 days of culture, FIG. 1
Procedure: HL60 cells were cultured using a test medium (RPMI 1640 medium, 10% FBS, antibiotic-free) to the logarithmic growth phase in a CO: incubator (5% Cq, 37° C.). 2) Cytotoxicity Test (Evaluation of the Toxicity Based on the Viability, that is, the Survival Rate or the Death Rate, of Cells) To each well of a 96-well plate, 0.1 mL of HL6O cells were plated at a concentration of 5×10^4 cells/mL, and a test substance (7 serial dilutions: a 10-fold dilution series ranging from 10%; the test substance was preliminarily sterilized by filtration) was added to the well at the same time. After 3 days of the culture, a viable cell assay reagent SF (final concentration, 10%) was added to the cell suspension culture liquid, and viable cells were counted. The test was carried out in 3 replicates (n=3). The viability of the cells was evaluated using a viable cell counting reagent SF (WST-8) based on measurement of the absorbance.

[3] = system: HL60 cells; test: DNA methylation level in HL60 cells; settings: 10 days of culture, FIG. 7
[4] = system: HL60 cells; test: Counting of viable cells by trypan blue staining; settings: positive control; solvent control 1.0×10^−5% DMSO; 5 days of culture; FIG. 8
Procedure: In each of T25 flasks, 5 mL of HL60 cells were seeded at 1×10^7 cells/flask. At the same time as the seeding, test substances (ethyl alcohol, retinoic acid, dimethyl sulfoxide, rotenone, SDW, and Examples 3 and 4) were fed to the flasks.
The addition of Example 3 to the medium was carried out after its sterilization by filtration. In Example 4, 10 mL of the test substance was warmed at 60° C. to evaporate the whole solvent, and 10 mL of sterile water was newly added thereto to dissolve the resultant. The resulting solution was sterilized by filtration, and then added to the medium. The retinoic acid to be added was provided as a concentrated solution containing retinoic acid at a concentration of 100 mM in ethyl alcohol, and the rotenone to be added was provided as a concentrated solution containing rotenone at a concentration of 100 mM in DMSO. […]
To 50 μL of a cell suspension culture liquid, 50 μL of a trypan blue solution was added, and the reaction was allowed to proceed for several minutes. Under the microscope, unstained cells and stained cells were counted using a hemocytometer. The number of dead cells (stained cells) per total number of cells was determined to calculate the number of live cells (cells/mL) and the dead cell ratio (%).

[5] = system: HL60 cells; test: Cell differentiation induction test, esterase staining (differentiation into monocytes); settings: final concentration 1 μM
Procedure: as §1
Esterase staining was carried out as follows using an esterase staining kit (manufactured by Muto Pure Chemicals Co., Ltd.). The concentration of the recovered cells was adjusted to 1×10^6 cells/mL with PBS. […]

C=C1/C(=C\C=C2/CCC[C@]3(C)[C@@H]([C@H](C)CCCC(C)(C)O)CC[C@@H]23)C[C@@H](O)C[C@@H]1O [active vitamin D3, reference compound] was tested, and the “differentiation ratio (ratio of NBT-stained cells)” value ([1]; final concentration 10 nM, decreased by half) was 4%.
O=c1c(O)c(-c2ccc(O)cc2)oc2cc(O)cc(O)c12 [kaempferol] was tested, and the “mitochondrial activity (absorbance, viable cell count)” value ([2]; concentration 0.1% (30 ng/mL=0.03 μg/mL) to 10% (300 μg/mL)) was “increased”, the “mitochondrial activity (absorbance, viable cell count)” value ([2]; concentration 3.2×10^−4% to 0.032%) was “suppressed” and the “differentiation ratio (ratio of NBT-stained cells)” value ([1]; 300 μg) was 3%. The “differentiation ratios (NBT-stained cells) on Day 10 of the culture, change” value ([1]; Day 10 of the culture, FIG. 4) was “decreased”, the “differentiation ratio (NBT-stained cells), trend” value ([1]; after 5 days of culture, FIG. 3) was “concentration-dependent improvement” and the “DNA methylation level in the HL60 cells” value ([3]; concentration 0.001%) was “increased”. For the same compound, the “DNA methylation level in the HL60 cells” value ([3]; concentration 10% (300 μg/mL)) was “decreased”.
C=C(C)[C@H]1Cc2c(ccc3c2O[C@@H]2COc4cc(OC)c(OC)cc4[C@@H]2C3=O)O1 [rotenone] was tested, and the “viable cell count by trypan blue staining versus solvent control” value [4] was “decreased to about half”.
With CC1=C(/C=C/C(C)=C/C=C/C(C)=C/C(=O)O)C(C)(C)CCC1 [retinoic acid] the “differentiation ratio (ratio of NBT-stained cells)” value ([1]; final concentration 1 μM) was 68%, the “differentiation into monocytes (ratio of esterase-stained cells)” value ([5]; Day 5 of the culture) was 2% and the “differentiation into monocytes (ratio of esterase-stained cells)” value ([5]; Day 10 of the culture) was 14%.

Reference: patent US20160081973A1, “ACTIVATOR OF MITOCHONDRIA” (FLORA CO., LTD., priority 2013, published 2016)
